Experimental data taken from PubChem BioAssay (NCI).
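Cells were grown in 96-well plates and exposed to each compound for 48 hours at five concentrations; endpoints were interpolated linearly between bracketing concentrations, or set to the highest concentration if not reached. TGI: total growth inhibition.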

Key:
Assay in all cases: growth of human tumour cells (NCI), 48 h
SF-539 CNS = test system: SF-539 CNS
SR leukemia = test system: SR leukemia
A549 NSCLC = test system: A549 NSCLC
MALME-3M melanoma = test system: MALME-3M melanoma
MDA-MB-231 breast = test system: MDA-MB-231 breast
HCT-116 colon = test system: HCT-116 colon
SW-620 colon = test system: SW-620 colon
NCI-H522 lung = test system: NCI-H522 lung
UO-31 renal = test system: UO-31 renal
SNB-75 CNS = test system: SNB-75 CNS

In the case of `c1ccc(COc2ncccc2C2SCCCS2)cc1`, the TGI (SF-539 CNS) is reported as greater than 100 µM, the TGI (SR leukemia) is reported as greater than 100 µM and the TGI (A549 NSCLC) is reported as greater than 100 µM. It also gave a TGI (MALME-3M melanoma) greater than 100 µM, a TGI (MDA-MB-231 breast) greater than 100 µM and a TGI (HCT-116 colon) greater than 100 µM. The TGI (SW-620 colon) was greater than 100 µM, the TGI (NCI-H522 lung) was greater than 100 µM and the TGI (UO-31 renal) was greater than 100 µM.

`C=C1C(=O)C[C@@]23CCC[C@@]12CC(O)C3` (some centres not stated) gave a TGI (SF-539 CNS) of 61.3 µM, a TGI (A549 NSCLC) greater than 100 µM and a TGI (MALME-3M melanoma) of 18.3 µM. The TGI (HCT-116 colon) was 44.5 µM, the TGI (SNB-75 CNS) was 48.7 µM and the TGI (SW-620 colon) was 37.2 µM. The TGI (NCI-H522 lung) was 7.55 µM and the TGI (UO-31 renal) was greater than 94.6 µM.

`CSC1(SC)CCCCCCCCCCC1` gave a TGI (SF-539 CNS) greater than 100 µM, a TGI (SR leukemia) greater than 100 µM and a TGI (A549 NSCLC) greater than 100 µM. For the same molecule, the TGI (MALME-3M melanoma) was 70.9 µM, the TGI (MDA-MB-231 breast) was greater than 100 µM and the TGI (HCT-116 colon) was 31.4 µM. The TGI (SW-620 colon) was greater than 100 µM, the TGI (NCI-H522 lung) was 34.9 µM and the TGI (UO-31 renal) was greater than 100 µM.

Work on `CN(C)CCNc1nc2ccccc2c2c1C(=O)c1ccccc1-2` yielded a TGI (SF-539 CNS) of 3.04 µM, a TGI (A549 NSCLC) of 2.96 µM and a TGI (MALME-3M melanoma) of 1.12 µM. It also gave a TGI (MDA-MB-231 breast) of 2.62 µM, a TGI (HCT-116 colon) of 1.38 µM and a TGI (SNB-75 CNS) of 1.68 µM. The TGI (SW-620 colon) was 4.9 µM, the TGI (NCI-H522 lung) was 0.895 µM and the TGI (UO-31 renal) was 3.17 µM.

`c1ccc(C/C(=N\Nc2nc3ccccc3o2)c2ccccn2)cc1` gave a TGI (SF-539 CNS) of 1.21 µM, a TGI (SR leukemia) of 2.05 µM and a TGI (A549 NSCLC) greater than 34.6 µM. For the same molecule, the TGI (MALME-3M melanoma) was 1.82 µM, the TGI (MDA-MB-231 breast) was 16.7 µM and the TGI (HCT-116 colon) was 3.68 µM. The TGI (SW-620 colon) was 4.79 µM, the TGI (NCI-H522 lung) was 18.9 µM and the TGI (UO-31 renal) was 4.55 µM.

With `COc1cc2cc3c4c(cc(OC)c(OC)c4c2cc1OC)CCN3C(=O)OCCBr` the TGI (SF-539 CNS) was greater than 100 µM, the TGI (SR leukemia) was greater than 100 µM and the TGI (A549 NSCLC) was greater than 100 µM. For the same molecule, the TGI (MALME-3M melanoma) was greater than 100 µM, the TGI (HCT-116 colon) was greater than 100 µM and the TGI (SNB-75 CNS) was greater than 100 µM. It also gave a TGI (SW-620 colon) greater than 100 µM, a TGI (NCI-H522 lung) greater than 100 µM and a TGI (UO-31 renal) greater than 100 µM.

In the case of `COc1cc(C2S/C(=C/c3ccccc3)C(=O)N2c2ccc(Cl)cc2)cc(OC)c1OC` (configuration not stated), the TGI (SR leukemia) is reported as greater than 100 µM, the TGI (A549 NSCLC) is reported as greater than 100 µM and the TGI (MALME-3M melanoma) is reported as 87.2 µM. It also gave a TGI (MDA-MB-231 breast) greater than 96.6 µM, a TGI (HCT-116 colon) greater than 100 µM and a TGI (SNB-75 CNS) greater than 79.9 µM. It also gave a TGI (SW-620 colon) greater than 100 µM, a TGI (NCI-H522 lung) of 21.2 µM and a TGI (UO-31 renal) greater than 100 µM.

Molecule `C/C=C\C(CC(=O)O)CC(=O)NCCC1CN(S(=O)(=O)C(F)(F)F)c2ccccc21` (configuration not stated) has a TGI (SR leukemia) greater than 100 µM, a TGI (A549 NSCLC) greater than 100 µM and a TGI (MALME-3M melanoma) greater than 100 µM. It also gave a TGI (MDA-MB-231 breast) greater than 100 µM, a TGI (HCT-116 colon) greater than 100 µM and a TGI (SNB-75 CNS) greater than 100 µM. The TGI (SW-620 colon) was greater than 100 µM, the TGI (NCI-H522 lung) was greater than 100 µM and the TGI (UO-31 renal) was greater than 100 µM.

With `CCOC(=O)Cc1nc2c(=O)[nH]cnc2n1C1OC(COC(C)=O)C(OC(C)=O)C1OC(C)=O` (configuration not stated) the TGI (SF-539 CNS) was greater than 100 µM, the TGI (A549 NSCLC) was greater than 100 µM and the TGI (MALME-3M melanoma) was greater than 100 µM. The TGI (MDA-MB-231 breast) was greater than 100 µM, the TGI (HCT-116 colon) was greater than 100 µM and the TGI (SNB-75 CNS) was greater than 100 µM. The TGI (SW-620 colon) was greater than 100 µM, the TGI (NCI-H522 lung) was greater than 100 µM and the TGI (UO-31 renal) was greater than 100 µM.

`CCOC(=O)C(Cc1c(-c2[nH]c3ccccc3c2CC(NC(=O)CNC(C)=O)C(=O)OCC)[nH]c2ccccc12)NC(=O)CNC(C)=O` (configuration not stated) was tested, and the TGI (SR leukemia) was greater than 100 µM, the TGI (A549 NSCLC) was greater than 100 µM and the TGI (MALME-3M melanoma) was 38.2 µM. The TGI (MDA-MB-231 breast) was 40.6 µM, the TGI (HCT-116 colon) was greater than 100 µM and the TGI (SNB-75 CNS) was 93.6 µM. It also gave a TGI (SW-620 colon) greater than 100 µM, a TGI (NCI-H522 lung) of 88.8 µM and a TGI (UO-31 renal) greater than 100 µM.

`COC(=O)c1cc2c3c(c(C(C)=O)c(OC)c2[nH]1)NCC3` gave a TGI (SF-539 CNS) greater than 50 µM, a TGI (SR leukemia) greater than 50 µM and a TGI (MALME-3M melanoma) greater than 50 µM. The TGI (MDA-MB-231 breast) was greater than 50 µM, the TGI (HCT-116 colon) was greater than 50 µM and the TGI (SNB-75 CNS) was greater than 50 µM. It also gave a TGI (SW-620 colon) greater than 50 µM and a TGI (UO-31 renal) greater than 50 µM.
